Source: patent publication US20260365670A1, “EGFR INHIBITORS AND USES THEREOF” (DIZAL (JIANGSU) PHARMACEUTICAL CO., LTD., priority 2022, published 2026)
Where two headings read alike, the source gives them in different places.

Assays:
EGFR[T790M/C797S/L858R] = molecular target: T1, EGFR[T790M/C797S/L858R] (Homo sapiens, UniProt P00533, C797S/L858R/T790M); experiment: Inhibition of EGFR[T790M/C797S/L858R] biochemical enzymatic activity (HTRF); settings: EGFR T790M-C797S-L858R, 1 mM ATP, 1 h, room temperature, read-out: IC50 (nM) @T790M- C797S - L858R
T1 construct: purchased Carna Bio
Procedure, shortened: (§1)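 Compounds at varying concentrations were tested against each EGFR form using 1 mM ATP and 1 μM TK Substrate-biotin. Reactions ran 1 h at room temperature in Mg2+/Mn2+ buffer with CHAPS, DTT and 0.5% DMSO. Time-resolved fluorescence gave IC50 by four-parameter fit.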

EGFR L858R = molecular target: T2, EGFR L858R (Homo sapiens, UniProt P00533, L858R); experiment: Inhibition of EGFR L858R biochemical enzymatic activity (HTRF); settings: 1 mM ATP, 1 h, room temperature, read-out: IC50 (nM) @L858R
T2 construct: purchased Carna Bio
Procedure, shortened: as §1

[1] = tested on: Ba/F3 cells expressing EGFR mutations; experiment: Cell proliferation assay, Ba/F3 cells expressing EGFR mutations (CellTiter-Glo, 72 hours); type: cell-based; settings: CellTiter-Glo
Procedure, shortened: (§2)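 Luminescent viable-cell counts were taken on a day 0 plate at dosing and again at endpoint. Proliferation was calculated as (sample − G0)/(DMSO − G0). Seeding was 5000 Ba/F3 or 500 PC-9 cells per well in RPMI1640, followed by overnight attachment and serial compound dilutions. The GI50 was fitted.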

PC-9 = experiment: Cell proliferation assay, PC-9 cells (CellTiter-Glo, 72 hours); type: cell-based; settings: PC9 cells, CellTiter-Glo, read-out: PC9 GI50
Procedure, shortened: as §2

EGFR Exon19Del = molecular target: T3, EGFR Exon19Del (Homo sapiens, UniProt P00533, DEL746-750); experiment: Inhibition of EGFR Exon19Del biochemical enzymatic activity (HTRF); settings: EGFR Del19, 1 mM ATP, 1 h, room temperature, read-out: IC50 @Del19
T3 construct: purchased Carna Bio
Procedure, shortened: as §1

EGFR (d746-750 C797S) = molecular target: T4, EGFR (d746-750 C797S) (Homo sapiens, UniProt P00533, C797S/DEL746-750); experiment: Inhibition of EGFR (d746-750 C797S) biochemical enzymatic activity (HTRF); settings: EGFR Del19-C797S, 1 mM ATP, 1 h, room temperature, read-out: IC50 (nM) @Del19-C797S
T4 construct: purchased signalchem
Procedure, shortened: as §1

EGFR Exon19Del/T790M = molecular target: T5, EGFR Exon19Del/T790M (Homo sapiens, UniProt P00533, DEL746-750/T790M); experiment: Inhibition of EGFR Exon19Del/T790M biochemical enzymatic activity (HTRF); settings: EGFR Del19-T790M, 1 mM ATP, 1 h, room temperature, read-out: IC50 (nM) @Del19-T790M
T5 construct: purchased Carna Bio
Procedure, shortened: as §1

EGFR L858R/T790M = molecular target: T6, EGFR L858R/T790M (Homo sapiens, UniProt P00533, L858R/T790M); experiment: Inhibition of EGFR L858R/T790M biochemical enzymatic activity (HTRF); settings: EGFR L858R-T790M, 1 mM ATP, 1 h, room temperature, read-out: IC50 (nM) @L858R-T790M
T6 construct: purchased Carna Bio
Procedure, shortened: as §1

EGFR (C797S L858R) = molecular target: T7, EGFR (C797S L858R) (Homo sapiens, UniProt P00533, C797S/L858R); experiment: Inhibition of EGFR (C797S L858R) biochemical enzymatic activity (HTRF); settings: EGFR L858-C797S, 1 mM ATP, 1 h, room temperature, read-out: IC50 (nM) @L858-C797S
T7 construct: purchased signalchem
Procedure, shortened: as §1

[2] = molecular target: T8, EGFR[T790M/C797S/d746-750] (Homo sapiens, UniProt P00533, C797S/DEL746-750/T790M); experiment: Inhibition of EGFR[T790M/C797S/d746-750] biochemical enzymatic activity (HTRF); settings: EGFR T790M-C797S-Del19, 1 mM ATP, 1 h, room temperature, read-out: IC50 (nM) @T790M - C797S - Del19
T8 construct: purchased Carna Bio
Procedure, shortened: as §1

A-431 = experiment: Cell proliferation GI50, A-431 cells (Table 6); type: cell-based
EGFR wild type = molecular target: T9, EGFR wild type (Homo sapiens, UniProt P00533); experiment: Inhibition of EGFR wild type biochemical enzymatic activity (HTRF); settings: EGFR WT, 1 mM ATP, 1 h, room temperature, read-out: IC50 (nM) @WT
T9 construct: purchased Carna Bio
Procedure, shortened: as §1

[3] = BaF3 cells, EGFR DEL19-C797S, read-out: DEL19-C797S/BaF3 GI50
[4] = BaF3 cells, EGFR DEL19-T790-C797S, read-out: DEL19-T790-C797S/BaF3 GI50
[5] = BaF3 cells, EGFR L858R, read-out: L858R/BaF3 GI50
[6] = BaF3 cells, EGFR L858R-C797S, read-out: L858R-C797S/BaF3 GI50
[7] = BaF3 cells, EGFR L858R-T790-C797S, read-out: L858R-T790-C797S/BaF3 GI50
[8] = BaF3 cells, EGFR L858R-T790M, read-out: L858R-T790M/BaF3 GI50
[9] = EGFR DEL19-T790M, read-out: DEL19-T790M GI50

T1 sequence (P00533 25-1210 T790M/C797S/L858R): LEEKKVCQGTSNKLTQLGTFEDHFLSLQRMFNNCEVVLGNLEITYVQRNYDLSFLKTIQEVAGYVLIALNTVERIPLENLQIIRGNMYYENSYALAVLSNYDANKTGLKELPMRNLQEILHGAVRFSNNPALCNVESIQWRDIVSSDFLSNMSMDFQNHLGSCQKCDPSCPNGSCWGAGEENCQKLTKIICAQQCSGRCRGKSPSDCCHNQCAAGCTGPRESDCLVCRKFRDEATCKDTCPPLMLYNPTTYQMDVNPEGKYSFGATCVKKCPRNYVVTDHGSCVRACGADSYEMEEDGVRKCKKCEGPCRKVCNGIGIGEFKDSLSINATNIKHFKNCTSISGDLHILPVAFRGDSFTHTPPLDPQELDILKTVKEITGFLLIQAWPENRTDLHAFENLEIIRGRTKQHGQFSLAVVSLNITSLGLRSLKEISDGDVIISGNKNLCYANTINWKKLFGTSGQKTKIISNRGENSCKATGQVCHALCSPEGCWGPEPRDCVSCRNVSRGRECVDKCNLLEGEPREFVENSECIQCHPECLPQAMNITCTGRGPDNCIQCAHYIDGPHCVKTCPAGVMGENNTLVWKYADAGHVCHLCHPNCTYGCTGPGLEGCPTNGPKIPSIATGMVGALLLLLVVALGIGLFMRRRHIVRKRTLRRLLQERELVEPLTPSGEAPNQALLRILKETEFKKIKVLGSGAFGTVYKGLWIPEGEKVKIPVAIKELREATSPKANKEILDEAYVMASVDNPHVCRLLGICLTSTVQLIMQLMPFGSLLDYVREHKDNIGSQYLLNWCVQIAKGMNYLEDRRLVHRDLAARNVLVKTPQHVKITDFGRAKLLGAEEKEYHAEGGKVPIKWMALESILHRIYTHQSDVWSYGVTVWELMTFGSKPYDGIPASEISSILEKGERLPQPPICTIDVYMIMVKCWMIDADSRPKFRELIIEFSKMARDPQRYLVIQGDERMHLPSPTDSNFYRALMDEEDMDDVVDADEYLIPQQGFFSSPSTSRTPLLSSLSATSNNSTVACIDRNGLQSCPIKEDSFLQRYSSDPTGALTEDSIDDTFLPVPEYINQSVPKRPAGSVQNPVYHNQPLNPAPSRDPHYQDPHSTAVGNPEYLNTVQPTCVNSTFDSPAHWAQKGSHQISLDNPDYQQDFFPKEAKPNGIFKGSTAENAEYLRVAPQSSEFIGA
T6 sequence (P00533 25-1210 T790M/L858R): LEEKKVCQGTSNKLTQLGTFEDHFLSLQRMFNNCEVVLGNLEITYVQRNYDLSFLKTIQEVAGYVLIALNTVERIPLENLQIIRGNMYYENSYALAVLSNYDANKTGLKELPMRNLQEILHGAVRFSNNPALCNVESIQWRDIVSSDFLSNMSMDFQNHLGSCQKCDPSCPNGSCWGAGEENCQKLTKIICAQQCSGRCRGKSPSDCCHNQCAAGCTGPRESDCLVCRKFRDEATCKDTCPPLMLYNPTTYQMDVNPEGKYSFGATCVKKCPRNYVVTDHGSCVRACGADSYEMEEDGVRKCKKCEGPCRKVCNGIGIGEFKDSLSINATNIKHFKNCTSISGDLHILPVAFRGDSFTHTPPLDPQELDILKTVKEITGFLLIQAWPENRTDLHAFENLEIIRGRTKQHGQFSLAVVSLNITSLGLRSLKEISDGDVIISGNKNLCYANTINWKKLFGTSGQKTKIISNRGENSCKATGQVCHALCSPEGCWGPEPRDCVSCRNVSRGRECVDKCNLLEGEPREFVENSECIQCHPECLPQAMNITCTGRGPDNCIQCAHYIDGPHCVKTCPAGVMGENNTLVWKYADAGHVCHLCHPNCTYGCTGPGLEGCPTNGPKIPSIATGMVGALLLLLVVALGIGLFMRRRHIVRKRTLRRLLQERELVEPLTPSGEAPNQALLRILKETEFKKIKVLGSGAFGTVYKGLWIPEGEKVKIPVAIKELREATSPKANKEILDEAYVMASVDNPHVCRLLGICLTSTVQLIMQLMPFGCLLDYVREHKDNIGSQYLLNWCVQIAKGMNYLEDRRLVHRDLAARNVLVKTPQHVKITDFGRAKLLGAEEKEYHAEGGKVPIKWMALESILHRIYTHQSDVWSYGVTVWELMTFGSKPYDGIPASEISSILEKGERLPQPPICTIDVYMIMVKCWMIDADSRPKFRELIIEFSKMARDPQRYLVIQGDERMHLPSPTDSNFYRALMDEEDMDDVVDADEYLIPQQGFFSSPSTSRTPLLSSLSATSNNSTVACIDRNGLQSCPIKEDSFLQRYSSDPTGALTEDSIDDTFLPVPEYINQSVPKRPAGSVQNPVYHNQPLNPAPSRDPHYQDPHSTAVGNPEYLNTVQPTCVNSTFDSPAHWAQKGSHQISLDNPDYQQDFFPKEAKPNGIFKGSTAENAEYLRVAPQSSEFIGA
T5 sequence (P00533 with tags, fused parts or gaps DEL746-750/T790M limits assumed): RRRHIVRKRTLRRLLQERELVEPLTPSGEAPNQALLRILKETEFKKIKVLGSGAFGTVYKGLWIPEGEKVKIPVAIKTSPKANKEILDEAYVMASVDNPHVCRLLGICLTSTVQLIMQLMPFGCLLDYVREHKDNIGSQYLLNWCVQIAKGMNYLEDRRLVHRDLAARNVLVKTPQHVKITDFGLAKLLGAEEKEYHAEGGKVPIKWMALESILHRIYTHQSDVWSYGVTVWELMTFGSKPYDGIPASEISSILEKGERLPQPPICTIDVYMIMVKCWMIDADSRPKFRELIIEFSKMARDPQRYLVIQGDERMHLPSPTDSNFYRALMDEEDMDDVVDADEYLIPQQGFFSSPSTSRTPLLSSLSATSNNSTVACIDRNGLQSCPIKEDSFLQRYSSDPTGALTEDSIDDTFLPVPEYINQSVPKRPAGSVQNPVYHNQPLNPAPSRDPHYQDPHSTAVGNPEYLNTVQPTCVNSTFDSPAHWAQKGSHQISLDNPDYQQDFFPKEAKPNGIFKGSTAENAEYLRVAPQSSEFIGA
T3 sequence (P00533 with tags, fused parts or gaps DEL746-750 limits assumed): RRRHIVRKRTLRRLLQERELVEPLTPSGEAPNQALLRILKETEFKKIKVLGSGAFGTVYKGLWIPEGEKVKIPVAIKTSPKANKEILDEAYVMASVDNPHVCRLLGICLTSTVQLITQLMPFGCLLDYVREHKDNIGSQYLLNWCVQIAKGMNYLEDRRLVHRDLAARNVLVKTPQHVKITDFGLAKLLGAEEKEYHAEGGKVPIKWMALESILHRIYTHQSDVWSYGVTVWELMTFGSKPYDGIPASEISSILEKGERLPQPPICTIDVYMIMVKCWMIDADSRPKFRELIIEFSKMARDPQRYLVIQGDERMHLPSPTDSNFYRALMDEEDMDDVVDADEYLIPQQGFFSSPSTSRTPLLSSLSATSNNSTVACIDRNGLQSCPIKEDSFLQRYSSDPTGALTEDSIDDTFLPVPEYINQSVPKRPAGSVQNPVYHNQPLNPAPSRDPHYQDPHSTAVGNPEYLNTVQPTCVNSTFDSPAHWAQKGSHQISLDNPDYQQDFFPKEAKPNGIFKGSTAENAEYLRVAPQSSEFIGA
T7 sequence (P00533 25-1210 C797S/L858R): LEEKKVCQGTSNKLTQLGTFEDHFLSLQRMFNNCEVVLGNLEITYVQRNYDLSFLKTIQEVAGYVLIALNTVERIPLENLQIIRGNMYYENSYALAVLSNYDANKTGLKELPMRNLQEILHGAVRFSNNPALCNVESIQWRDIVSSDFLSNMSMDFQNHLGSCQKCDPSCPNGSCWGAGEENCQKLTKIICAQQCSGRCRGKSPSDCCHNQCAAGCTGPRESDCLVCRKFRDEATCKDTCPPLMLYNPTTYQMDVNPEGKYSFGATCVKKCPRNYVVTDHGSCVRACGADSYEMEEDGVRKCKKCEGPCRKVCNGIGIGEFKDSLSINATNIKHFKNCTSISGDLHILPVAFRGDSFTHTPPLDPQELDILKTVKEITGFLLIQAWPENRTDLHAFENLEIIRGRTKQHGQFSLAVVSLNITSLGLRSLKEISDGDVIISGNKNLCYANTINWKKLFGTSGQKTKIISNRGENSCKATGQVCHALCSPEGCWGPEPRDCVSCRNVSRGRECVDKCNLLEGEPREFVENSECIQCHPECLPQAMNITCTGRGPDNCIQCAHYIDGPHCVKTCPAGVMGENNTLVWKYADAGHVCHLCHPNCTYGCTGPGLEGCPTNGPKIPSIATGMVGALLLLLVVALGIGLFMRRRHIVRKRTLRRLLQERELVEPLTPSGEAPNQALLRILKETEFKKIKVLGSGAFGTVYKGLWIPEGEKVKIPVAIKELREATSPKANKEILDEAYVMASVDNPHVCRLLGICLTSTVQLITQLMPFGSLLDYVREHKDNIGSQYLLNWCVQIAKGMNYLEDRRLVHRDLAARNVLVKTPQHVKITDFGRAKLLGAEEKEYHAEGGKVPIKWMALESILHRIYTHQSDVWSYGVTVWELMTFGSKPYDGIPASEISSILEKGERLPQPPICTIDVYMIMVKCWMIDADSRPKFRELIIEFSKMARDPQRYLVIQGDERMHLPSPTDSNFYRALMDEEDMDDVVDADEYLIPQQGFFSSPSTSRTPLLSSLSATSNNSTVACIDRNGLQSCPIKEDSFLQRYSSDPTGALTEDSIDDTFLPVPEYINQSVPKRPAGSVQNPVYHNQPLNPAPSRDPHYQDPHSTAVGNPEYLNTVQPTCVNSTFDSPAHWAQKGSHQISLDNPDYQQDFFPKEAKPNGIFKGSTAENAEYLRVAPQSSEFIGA

| SMILES | IC50 (EGFR[T790M/C797S/L858R]) | IC50 (EGFR L858R) | GI50 [1, 3] | GI50 [1, 4] | GI50 [1, 5] | GI50 [1, 6] | GI50 [1, 7] | GI50 [1, 8] | GI50 [1, 9] | GI50 (PC-9) | IC50 (EGFR Exon19Del) | IC50 (EGFR (d746-750 C797S)) | IC50 (EGFR Exon19Del/T790M) | IC50 (EGFR L858R/T790M) | IC50 (EGFR (C797S L858R)) | IC50 [2] | GI50 (A-431; A-431 cells) | IC50 (EGFR wild type) | GI50 (A-431; Homo sapiens, A-431, A-431 cells) |
| --- | --- | --- | --- | --- | --- | --- | --- | --- | --- | --- | --- | --- | --- | --- | --- | --- | --- | --- | --- |
| Cn1ncc2c1OCCN1CC3CCC(C3)(C1)n1c(nc3ccc(N4CCC(N5CC(F)C5)C4)cc31)NC(=O)c1cc-2c(=O)n(C)c1 (single isomer, unassigned) [Example A94A, 5-[3-(3-Fluoroazetidin-1-yl)pyrrolidin-1-yl]-15,21-dimethyl-23-oxa-2,9,11,15,20,21,26-heptaazaheptacyclo[24.4.1.1^{1,28}.1^{13,17}.0^{2,10}.0^{3,8}.0^{18,22}]tritriaconta-3,5,7,9,13,17(33),18(22),19-octaene-12,16-dione] | > 5000 nM | 4740 nM | 114 nM | 254 nM | 323 nM | 284 nM | 539 nM | 944 nM | 209 nM | 981 nM | 830 nM | 1560 nM | > 5000 nM | > 5000 nM | > 5000 nM | > 5000 nM | 1660 nM | > 5000 nM |  |
| Cn1ncc2c1OCCN1CC3CCC(C3)(C1)n1c(nc3ccc(N4CCC(N5CC(F)C5)C4)cc31)NC(=O)c1cc-2c(=O)n(C)c1 (single isomer, unassigned) [Example A94B1, 5-[3-(3-Fluoroazetidin-1-yl)pyrrolidin-1-yl]-15,21-dimethyl-23-oxa-2,9,11,15,20,21,26-heptaazaheptacyclo[24.4.1.1^{1,28}.1^{13,17}.0^{2,10}.0^{3,8}.0^{18,22}]tritriaconta-3,5,7,9,13,17(33),18(22),19-octaene-12,16-dione] | 5 nM | 27 nM | 0.73 nM | 6.5 nM | 2 nM | 6 nM | 3.9 nM | 12 nM | 3 nM | 16 nM | 10 nM | 3.7 nM | 7.1 nM | 8.8 nM | 15 nM | 5 nM | 1110 nM | 148 nM |  |
| Cn1ncc2c1OCCN1CC3CCC(C3)(C1)n1c(nc3ccc(N4CCC(N5CC(F)C5)C4)cc31)NC(=O)c1cc-2c(=O)n(C)c1 (single isomer, unassigned) [Example A94B2, 5-[3-(3-Fluoroazetidin-1-yl)pyrrolidin-1-yl]-15,21-dimethyl-23-oxa-2,9,11,15,20,21,26-heptaazaheptacyclo[24.4.1.1^{1,28}.1^{13,17}.0^{2,10}.0^{3,8}.0^{18,22}]tritriaconta-3,5,7,9,13,17(33),18(22),19-octaene-12,16-dione] | 9.7 nM | 45 nM | 0.77 nM | 8.5 nM | 3.3 nM | 7.2 nM | 5.4 nM | 14 nM | 5 nM | 30 nM | 8.9 nM | 4.5 nM | 6.3 nM | 9.7 nM | 30 nM | 5.2 nM | 1980 nM | 289 nM |  |
| Cn1ncc2c1OCCN1CC3CCC(C3)(C1)n1c(nc3ccc(N4CCC(N5CC(F)C5)C4)cc31)NC(=O)c1cc-2c(=O)n(C)c1 (single isomer, unassigned) [Example A94B, 5-[3-(3-Fluoroazetidin-1-yl)pyrrolidin-1-yl]-15,21-dimethyl-23-oxa-2,9,11,15,20,21,26-heptaazaheptacyclo[24.4.1.1^{1,28}.1^{13,17}.0^{2,10}.0^{3,8}.0^{18,22}]tritriaconta-3,5,7,9,13,17(33),18(22),19-octaene-12,16-dione] | 9.5 nM | 29 nM |  | 4.5 nM | 5.1 nM |  | 7.7 nM | 14 nM | 3.3 nM | 35 nM | 5.2 nM | 6.1 nM | 11 nM | 11 nM | 20 nM | 8.4 nM | 2880 nM | 235 nM |  |
| CN(C)C1CCN(c2ccc3nc4n(c3c2)C23CCC(CN(CCOc5c(cnn5C)-c5cc(cn(C)c5=O)C(=O)N4)C2)C3)CC1(F)F (single isomer, unassigned) [Example A97A] | > 5000 nM | 3030 nM | 102 nM | 527 nM | 129 nM | 325 nM | 124 nM | 1000 nM | 459 nM | 763 nM | 1190 nM | 850 nM | > 5000 nM | > 5000 nM | 3950 nM | > 5000 nM | 5790 nM | > 5000 nM |  |
| CN(C)C1CCN(c2ccc3nc4n(c3c2)C23CCC(CN(CCOc5c(cnn5C)-c5cc(cn(C)c5=O)C(=O)N4)C2)C3)CC1(F)F (single isomer, unassigned) [Example A97B] | 4.7 nM | 14 nM | 0.76 nM | 5.6 nM | 2 nM | 3 nM | 3.5 nM | 13 nM | 6.4 nM | 24 nM | 4.4 nM | 1.7 nM | 4.9 nM | 5.7 nM | 8.4 nM | 4.8 nM | 1450 nM | 224 nM |  |
| CN1C2CC1CN(c1ccc3nc4n(c3c1)C13CCC(CN(CCOc5c(cnn5C)-c5cc(cn(C)c5=O)C(=O)N4)C1)C3)C2 (single isomer, unassigned) [Example A98B] | 2.3 nM | 3.3 nM | 0.64 nM | 1.5 nM | 0.54 nM | 2.8 nM | 1.1 nM | 3 nM | 1.5 nM | 7.6 nM | 1.8 nM | 1.3 nM | 2.9 nM | 2.7 nM | 4.1 nM | 2.7 nM |  | 21 nM | 280 nM |
| CN(C)C1CN(c2ccc3nc4n(c3c2)C23CCC(CN(CCOc5c(cnn5C)-c5cc(cn(C)c5=O)C(=O)N4)C2)C3)CC1(F)F (single isomer, unassigned) [Example A99B] | 10 nM | 94 nM | 1.2 nM | 15 nM |  | 11 nM | 4.6 nM |  | 7.9 nM | 46 nM | 3.5 nM | 4.6 nM | 8.4 nM | 11 nM | 59 nM | 7.7 nM | 3640 nM | 3530 nM |  |
